Source: ChEMBL document CHEMBL1208782, “Synthesis and pharmacological validation of a novel series of non-steroidal FXR agonists” (Bioorg Med Chem Lett, 2010)

Columns and labels:
[1] = target: T1, Bile acid receptor (Homo sapiens) (UniProt Q96RI1); experiment: Agonist activity at human […] FXR LBD expressed in HEK293 cells coexpressing GAL4-DNA bindig domain and pFRluc by mammalian one-hybrid assay relative to GW-4064; format: functional, cell-based
T1 sequence (whole entry): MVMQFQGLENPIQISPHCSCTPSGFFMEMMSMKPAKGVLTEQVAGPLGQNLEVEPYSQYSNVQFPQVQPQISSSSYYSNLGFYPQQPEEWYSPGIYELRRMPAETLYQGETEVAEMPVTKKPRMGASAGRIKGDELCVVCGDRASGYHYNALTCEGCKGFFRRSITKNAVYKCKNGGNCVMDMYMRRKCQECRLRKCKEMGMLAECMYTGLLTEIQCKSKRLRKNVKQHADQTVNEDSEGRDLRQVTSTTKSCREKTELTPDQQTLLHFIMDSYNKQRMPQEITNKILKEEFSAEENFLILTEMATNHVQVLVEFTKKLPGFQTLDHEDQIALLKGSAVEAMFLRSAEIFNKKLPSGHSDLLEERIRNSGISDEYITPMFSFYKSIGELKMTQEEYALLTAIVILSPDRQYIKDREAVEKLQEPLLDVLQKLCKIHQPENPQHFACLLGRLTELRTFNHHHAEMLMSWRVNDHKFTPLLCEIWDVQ

Bile acid receptor [2] = target: T2, Bile acid receptor (Homo sapiens, UniProt Q96RI1); experiment: Agonist activity at human full length FXR transfected in HEK293 cells coexpressing pTRexDest/pGL2promotor assessed as luciferase activity by direct reporter cellular assay; format: functional, cell-based
T2 sequence (Q96RI1 whole entry): T1 sequence (whole entry)

[3] = target: T1, Bile acid receptor (Homo sapiens); experiment: Agonist activity at human full length FXR transfected in HEK293 cells coexpressing pTRexDest/pGL2promotor assessed as luciferase activity by direct reporter cellular assay relative to GW-4064; format: functional, cell-based
[4] = target: T1, Bile acid receptor (Homo sapiens); experiment: Agonist activity at human GST-fused FXR LBD assessed as cofactor peptide interaction with receptor ligand binding domain by FRET assay relative to GW-4064
Bile acid receptor [5] = target: T2, Bile acid receptor; experiment: Agonist activity at human […] FXR LBD expressed in HEK293 cells coexpressing GAL4-DNA bindig domain and pFRluc by mammalian one-hybrid assay; format: functional, cell-based
Bile acid receptor [6] = target: T2, Bile acid receptor; experiment: Agonist activity at human GST-fused FXR LBD assessed as cofactor peptide interaction with receptor ligand binding domain by FRET assay

SMILES	Efficacy [1] [%]	EC50 (Bile acid receptor [2]; read-out: EC50) [nM]	Efficacy [3] [%]	Efficacy [4] [%]	EC50 (Bile acid receptor [5]; read-out: EC50) [nM]	EC50 (Bile acid receptor [6]) [nM]	EC50 (Bile acid receptor [2]; hek293)	EC50 (Bile acid receptor [5]; hek293)
CC(C)c1onc(-c2c(Cl)cccc2Cl)c1COc1cnc(N(C)Cc2ccc(C(=O)O)cc2)c(Cl)c1	70	120	51	103	107	242	–	–
Cc1cc(C(F)(F)F)cc(OCc2c(-c3c(Cl)cccc3Cl)noc2C(C)C)n1	–	–	–	–	–	225	Not Active	Not Active
CCN(Cc1ccc(C(=O)O)cc1)c1ccc(OCc2c(-c3c(Cl)cccc3Cl)noc2C2CC2)nc1C(F)(F)F	54	113	43	94	180	194	–	–
CC(C)c1onc(-c2c(Cl)cccc2Cl)c1COc1ccc(/C=C/c2cccc(C(=O)O)c2)c(Cl)c1	100	–	100	100	–	–	–	–
CC(C)c1onc(-c2c(Cl)cccc2Cl)c1COc1ccc(N(C)Cc2ccc(OCCO)cc2)c(C(F)(F)F)n1	43	155	59	87	1150	164	–	–
Cc1cc(OCc2c(-c3c(Cl)cccc3Cl)noc2C(C)C)nc2ccccc12	40	878	68	104	536	147	–	–
Cc1nc(OCc2c(-c3c(Cl)cccc3Cl)noc2C(C)C)ccc1N(C)C(=O)c1ccc(C(=O)O)cc1	21	1190	49	95	2030	365	–	–
CC(Oc1ccc(C(=O)O)cc1)c1ccc(OCc2c(-c3c(Cl)cccc3Cl)noc2C2CC2)nc1C(F)(F)F (stereo not given)	70	611	33	89	189	352	–	–
CC(C)c1onc(-c2c(Cl)cccc2Cl)c1COc1ccc(NCc2ccc(C(=O)O)cc2)c(C(F)(F)F)n1	48	101	45	97	398	162	–	–
CC(C)c1onc(-c2c(Cl)cccc2Cl)c1COc1ccc(N(C)C(=O)c2ccc(C(=O)O)cc2)c(C(F)(F)F)n1	36	208	63	101	316	235	–	–
CC(Oc1cccc(C(=O)O)c1)c1ccc(OCc2c(-c3c(Cl)cccc3Cl)noc2C2CC2)nc1C(F)(F)F (stereo not given)	50	58	49	102	107	155	–	–
CC(c1ccc(OCc2c(-c3c(Cl)cccc3Cl)noc2C2CC2)nc1C(F)(F)F)N(C)c1ccc(C(=O)O)cc1 (stereo not given)	55	182	57	102	208	179	–	–
CC(C)c1onc(-c2c(Cl)cccc2Cl)c1COc1ccc(NC(=O)c2ccc(C(=O)O)cc2)c(C(F)(F)F)n1	21	385	48	109	474	452	–	–
CC(C)c1onc(-c2c(Cl)cccc2Cl)c1COc1ccc(N(C)C(=O)c2cccc(C(=O)O)c2)c(C(F)(F)F)n1	35	537	55	110	571	433	–	–
Cc1cc(OCc2c(-c3c(Cl)cccc3Cl)noc2C(C)C)ncc1[N+](=O)[O-]	58	–	76	101	–	–	–	–
CC(C)c1onc(-c2c(Cl)cccc2Cl)c1COc1cnc(N(C)Cc2cccc(C(=O)O)c2)c(Cl)c1	42	61	54	105	100	190	–	–
O=C(O)c1ccccc1OCc1ccc(OCc2c(-c3c(Cl)cccc3Cl)noc2C2CC2)nc1C(F)(F)F	63	611	33	91	1710	434	–	–

Further lines, results first:

Efficacy [1] [%]	EC50 (Bile acid receptor [2]; read-out: EC50) [nM]	Efficacy [3] [%]	Efficacy [4] [%]	EC50 (Bile acid receptor [5]; read-out: EC50) [nM]	EC50 (Bile acid receptor [6]) [nM]	EC50 (Bile acid receptor [2]; hek293)	EC50 (Bile acid receptor [5]; hek293)	SMILES
59	202	49	99	333	101	–	–	CC(Nc1ccc(C(=O)O)cc1)c1ccc(OCc2c(-c3c(Cl)cccc3Cl)noc2C2CC2)nc1C(F)(F)F (stereo not given)
55	16	66	96	35	17	–	–	CC(C)c1onc(-c2c(Cl)cccc2Cl)c1COc1ccc(N(C)Cc2ccc(CCC(=O)O)cc2)c(C(F)(F)F)n1
59	20	72	110	279	48	–	–	CC(C)c1onc(-c2c(Cl)cccc2Cl)c1COc1ccc(N(C)Cc2cccc(C(=O)NS(C)(=O)=O)c2)c(C(F)(F)F)n1
89	6	58	102	80	12	–	–	CC(C)c1onc(-c2c(Cl)cccc2Cl)c1COc1ccc(N(C)Cc2cccc(C(=O)O)c2)c(C(F)(F)F)n1
48	216	61	114	457	36	–	–	CC(C)c1onc(-c2c(Cl)cccc2Cl)c1COc1ccc(N(C)Cc2cccc(C(=O)NCCOP(=O)(O)O)c2)c(C(F)(F)F)n1
62	33	41	98	151	43	–	–	O=C(O)c1cccc(OCc2ccc(OCc3c(-c4c(Cl)cccc4Cl)noc3C3CC3)nc2C(F)(F)F)c1
69	19	59	90	214	35	–	–	CC(C)c1onc(-c2c(Cl)cccc2Cl)c1COc1ccc(N(C)Cc2ccc(OCC(=O)O)cc2)c(C(F)(F)F)n1
64	11	67	105	221	40	–	–	CC(C)c1onc(-c2c(Cl)cccc2Cl)c1COc1ccc(N(C)Cc2ccc(C(=O)NS(C)(=O)=O)cc2)c(C(F)(F)F)n1
59	38	42	86	95	76	–	–	O=C(O)c1ccc(OCc2ccc(OCc3c(-c4c(Cl)cccc4Cl)noc3C3CC3)nc2C(F)(F)F)cc1
–	1140	–	–	1000	89	–	–	Cc1cc(OCc2c(-c3c(Cl)cccc3Cl)[n-][o+]c2C(C)C)ncc1[N+](=O)[O-]
